This note sets out measurements from US20250114472A1, “CONJUGATE AND USE THEREOF” (BEIJING CHEMPION BIOTECHNOLOGY CO., LTD., priority 2022, published 2025).

Where a SMILES comes first, the peptide text is derived from it. [ ]: non-standard residue; d: D form. The star is where a group is joined. Dolaproine = CO[C@@H]([C@@H]1CCCN1)[C@@H](C)C(=O)O; Dil = CC[C@H](C)[C@H](NC)[C@@H](CC(=O)O)OC; X1 = C[C@@H](N*)[C@@H](O)c1ccccc1; NMeV = CN[C@H](C(=O)O)C(C)C

The experiment deals with NCI-N87 cells. As to the kind of experiment: Cytotoxicity assay (Cell Titer Glo cell viability). As to conditions: 144 hours, CTG. In kind it is cell-based. In general terms: In ATP-based viability assays light output follows the ATP content of the culture.

From the text: Cell viability assay was used to detect the cytotoxicity of an ADC antibody on NCI-N87 cells. This method can quantitatively analyze and specifically detect the cytotoxicity of an ADC antibody on NCI-N87 cells. Cells cultured without addition of ADC antibody were used as a blank control to determine the threshold of the cell viability detection. A signal below this threshold was considered as a specific signal generated after the ADC antibody killed cells. NCI-N87 cells (5×10^3 cells/well) were resuspended in a RPMI1640 medium containing 15% FBS and inoculated into a black 96-well plate with transparent bottom in a volume of 50 μL. The 96-well plate was placed in an incubator set at 37° C. and 5% CO2 overnight. After the overnight incubation, 50 μL of different concentrations of ADC antibodies or MMAE (starting from 400 nM, 4-fold serial dilution) were added to the 96-well plate (making the total volume to 100 μL/well), and the 96-well plate was placed in an incubator set at 37° C. and 5% CO2 for 144 hours. Cell Titer Glo (50 μL/well) was added to each well and the mixture was thoroughly mixed. The luciferase intensity was read using Envision. The cytotoxic effect was calculated using the following formula: cytotoxicity %=100* (RFUcell only−RFUsample)/RFUcell only. The IC50 value was calculated by four-parameter nonlinear regression analysis using GraphPad Prism 7 software.

As to `CC[C@H](C)[C@@H]([C@@H](CC(=O)N1CCC[C@H]1[C@H](OC)[C@@H](C)C(=O)N[C@H](C)[C@@H](O)c1ccccc1)OC)N(C)C(=O)[C@@H](NC(=O)[C@@H](NC)C(C)C)C(C)C` [MMAE, monomethyl auristatin E] (H-[NMeV]V[Dil][Dolaproine]-X1), for the setting “from 400 nM”, the “Max Inh %” value is recorded as 90.41%. Also, the midpoint of inhibition (Homo sapiens), the IC50, lay at 0.12 nM.

What is called IC50 is the midpoint of a concentration-inhibition curve.
